Data set [1] has as its system Escherichia coli (clinical isolate*). Kind of data set: Antimicrobial spectrum, minimal inhibitory concentration. The class given is cell-based. As to conditions: clinical isolate resistant to tetracycline, streptomycin, kanamycin, lividomycin, aminobenzylpenicillin and sulbenicillin, Tripticase Soy Agar (BBL), pH 6.5, 37° C, read-out: minimal inhibitory concentrations. The method, then:
(§1) Based on the above physical and chemical properties as well as the results of other analyses, the chemical structure of this new antibiotic C-2801-X was determined as follows. [drawing 2] 11. Antimicrobial spectrum: Medium: Tripticase Soy Agar (BBL) (manufactured by Becton Dickenson Co., U.S.A.), pH 6.5, minimal inhibitory concentrations mcg/ml., temperature 37° C
*The strain is resistant to tetracycline, streptomycin, kanamycin,
lividomycin, aminobenzylpenicillin and sulbenicillin.

For a further data set, the system named is mice. The data set can be described thus: Acute toxicity test in mice. The data set is classed as in vivo. As to conditions: 400 mg. per kilogram of body weight, intravenously. The method, then: In an acute toxicity test in mice, there occurred no death when 400 mg. of Antibiotic C-2801-X monosodium salt per kilogram of body weight was administered intravenously.

The subject of data set [2] is Alcaligenes faecalis IFO-13111. Kind of data set: Antimicrobial spectrum, minimal inhibitory concentration. The class given is cell-based. As to conditions: IFO13111, Tripticase Soy Agar (BBL), pH 6.5, 37° C, read-out: minimal inhibitory concentrations. The method, then: as §1
(§2) (The IFO-numbers given above are the accession numbers at the Institute
(§3) for Fermentation, Osaka, Japan).

Data set [3] relates to Klebsiella pneumoniae IFO-3512. The data set is described as above. The class given is cell-based. To be noted: IFO3512, Tripticase Soy Agar (BBL), pH 6.5, 37° C, read-out: minimal inhibitory concentrations. The protocol:
as §1, §2, §3

The subject of data set [4] is Proteus vulgaris IFO-3988. Described as above. The data set is classed as cell-based. As to conditions: IFO3988, Tripticase Soy Agar (BBL), pH 6.5, 37° C, read-out: minimal inhibitory concentrations. The method, then:
as §1, §2, §3

Data set [5] has as its system Bacillus pumilus IFO-3813. The data set is described as above. The class given is cell-based. As to conditions: IFO3813, Tripticase Soy Agar (BBL), pH 6.5, 37° C, read-out: minimal inhibitory concentrations. The method, then: as §1, §2, §3
The subject of data set [6] is Proteus morganii IFO-3848. The data set is described as above. The class given is cell-based. As to conditions: Morganella morganii, IFO3848, Tripticase Soy Agar (BBL), pH 6.5, 37° C, read-out: minimal inhibitory concentrations. The protocol: as §1, §2, §3
For data set [7], the system named is Proteus mirabilis IFO-3849. The description is as above. The class given is cell-based. As to conditions: IFO3849, Tripticase Soy Agar (BBL), pH 6.5, 37° C, read-out: minimal inhibitory concentrations. The protocol: as §1, §2, §3
For data set [8], the system named is Salmonella typhimurium IFO-12529. The description is as above. As to conditions: Salmonella enterica, Tripticase Soy Agar (BBL), pH 6.5, 37° C, read-out: minimal inhibitory concentrations. The data set is classed as cell-based. The method, then:
as §1, §2, §3

In data set [9] the test system is Salmonella enteritidis IFO-3313. The data set is described as above. To be noted: Salmonella enterica, Tripticase Soy Agar (BBL), pH 6.5, 37° C, read-out: minimal inhibitory concentrations. The class given is cell-based. The method, then: as §1, §2, §3
Data set [10] relates to Pseudomonas aeruginosa IFO-3080. The data set is described as above. The class given is cell-based. As to conditions: IFO3080, Tripticase Soy Agar (BBL), pH 6.5, 37° C, read-out: minimal inhibitory concentrations. The protocol: as §1, §2, §3
Data set [11] concerns Aerobacter cloacae IFO-12009. The data set is described as above. The class given is cell-based. As to conditions: Enterobacter cloacae, IFO12009, Tripticase Soy Agar (BBL), pH 6.5, 37° C, read-out: minimal inhibitory concentrations. The protocol: as §1, §2, §3
Data set [12] deals with Escherichia coli (clinical isolate**). The data set is described as above. The class given is cell-based. As to conditions: clinical isolate resistant to sulfonamide, streptomycin and sulbenicillin, Tripticase Soy Agar (BBL), pH 6.5, 37° C, read-out: minimal inhibitory concentrations. The method, then:
as §1
**The strain is resistant to sulfonamide, streptomycin and sulbenicillin.

A further data set in a line: Solubility. The class given is physicochemical.
A short description of the next data set: acidity-alkalinity. The data set is classed as physicochemical.
Data set [13] concerns Pseudomonas aeruginosa NCTC-10490. Kind of data set: Antimicrobial spectrum, minimal inhibitory concentration. The data set is classed as cell-based. To be noted: NCTC10490, Tripticase Soy Agar (BBL), pH 6.5, 37° C, read-out: minimal inhibitory concentrations. The protocol: as §1
In data set [14] the test system is Staphylococcus aureus 209 P. The description is as above. The data set is classed as cell-based. To be noted: Tripticase Soy Agar (BBL), pH 6.5, 37° C, read-out: minimal inhibitory concentrations. The protocol: as §1
The test system of data set [15] is Straphylococcus aureus No.87. The description is as above. The class given is cell-based. As to conditions: Tripticase Soy Agar (BBL), pH 6.5, 37° C, read-out: minimal inhibitory concentrations. The method, then:
as §1

The test system of data set [16] is Escherichia coli (clinical isolate, antibiotic-susceptible strain). The data set is described as above. The class given is cell-based. To be noted: Tripticase Soy Agar (BBL), pH 6.5, 37° C, read-out: minimal inhibitory concentrations. The method, then: as §1
In data set [17] the test system is Staphylococcus aureus 209 P (chloramphenicol, streptomycin, tetracycline and erythromycin-resistant). Described as above. The class given is cell-based. As to conditions: pH 6.5, read-out: minimal inhibitory concentrations. The protocol:
as §1

Another data set deals with Escherichia coli NIHJ. The description is as above. The data set is classed as cell-based. As to conditions: Tripticase Soy Agar (BBL), pH 6.5, 37° C, read-out: minimal inhibitory concentrations. The method, then: as §1
The test system of data set [18] is Bacillus subtilis PCI 219. The data set is described as above. The data set is classed as cell-based. As to conditions: PCI219, Tripticase Soy Agar (BBL), pH 6.5, 37° C, read-out: minimal inhibitory concentrations. The protocol: as §1
Data set [19] can be described thus: Stability under strongly acidic and under alkaline conditions. The class given is physicochemical.
Data set [20] relates to Staphylococcus aureaus, Bacillus subtilis, Escherichia coli, Proteus vulgaris, Salmonella typhimurium, aerobic bacteria. The data set can be described thus: Inhibition of bacterial growth (summary statement). The class given is cell-based. As to conditions: antibiotic C-2801-X and its salts.

Experimental findings from US4017485A, “7-Methoxycephalosporin derivatives” (Takeda Chemical Industries, Ltd., priority 1973, dated 1977) are described below.

Structures can show the parent of a compound that is named as a salt. Where only a bound is given, the exact number is not on record here.

As to `COC(=Cc1ccc(O)c(O)c1)C(=O)OCC1=C(C(=O)O)N2C(=O)C(NC(=O)CCCC(N)C(=O)O)(OC)C2SC1` (stereo not shown) [Antibiotic C-2801-X monosodium salt], the MIC came out at 25 µg/mL in data set [1]; 12.5 µg/mL in [2]; 6.25 µg/mL in [3]; 12.5 µg/mL in data set [4]; 50 µg/mL in data set [5]; 25 µg/mL in data set [6]. Besides, the MIC in [7] was 3.13 µg/mL; in data set [8] it was 6.25 µg/mL; in [9], 6.25 µg/mL; in data set [10], greater than 100 µg/mL; in [11], 25 µg/mL; in data set [12] it was 25 µg/mL. Moreover, the MIC in data set [13] is greater than 100 µg/mL; in [14] it was 50 µg/mL; in [15], 50 µg/mL; in [16], 25 µg/mL; in data set [17] it was 50 µg/mL; in the data set with Escherichia coli NIHJ, 50 µg/mL. Besides, the MIC in data set [18] was found to be 12.5 µg/mL. Also, the “death in acute toxicity test” value in the data set with mice is recorded as “no death”. Moreover, the Solubility result in “Solubility” (in chloroform) was “Insoluble”; in the data set “Solubility” (in ethanol) it was “Soluble”; in “Solubility” (in ether) it was “Insoluble”; in “Solubility” (in ethyl acetate) it was “Insoluble”; in the data set “Solubility” (in methanol), “Soluble”; in the data set “Solubility” (in water) it was “Soluble”. The acidity-alkalinity result in the data set “acidity-alkalinity” is recorded as “Amphoteric”.

On to `COC(=Cc1ccc(O)c(O)c1)C(=O)OCC1=C(C(=O)O)N2C(=O)C(NC(=O)CCCC(N)C(=O)O)(OC)C2SC1` (stereo not shown) [Antibiotic C-2801-X], for which the stability result in data set [19] is on record as “unstable”. In addition, the “inhibition of growth of bacteria” value in data set [20] was “inhibit the growth”. For the same molecule, the Solubility entry in “Solubility” (in water) was “water-soluble”. Moreover, the acidity-alkalinity entry in “acidity-alkalinity” is “amphoteric”.
